Key:
1321N1 cells = experiment: XTT cell death assay, 1321N1 astrocytoma cells; format: cell-based; conditions: Homo sapiens, *Greater than 50% inhibition, dilutions 0.01 nM to 200 μM, usually 24 or 48 hours, read-out: 1321N* (brain cancer): concentration with greater than 50% inhibition
Protocol: (§1) Maintenance and Treatment of Cell Lines. Human HepG2 hepatocarcinoma cells and human U87MG glioma cells (ATCC, Manassas, Va.) were maintained in EMEM medium supplemented with 10% FBS (Hyclone, Logan, Utah). The human 1321N1 astrocytoma cells (European Collection of Cell Cultures, Sigma-Aldrich) were cultured in Dulbecco's modified Eagle's medium supplemented with 10% FBS and 2 mM L-glutamine. Human prostate carcinoma cell line PC3 was cultured in F-12K medium (Life Technologies) supplemented 10% FBS. Human lung carcinoma cell line A549 was cultured in DMEM+2 mM glutamine+10% FBS. ER positive, estrogen independent for growth MCF7/LCC9 cell line was cultured in IMEM (Biofluids) supplemented with 5% charcoal stripped calf serum. Medulloblastoma cell line DAOY was cultured in Eagle's MEM supplemented with 10% FBS.
(§2) Cell death assay. The extent of cell death and toxicity of the compounds was tested by XTT assay. The cells were plated in their respective media in 96-well plates. The compounds and were added in dilutions ranging from 0.01 nM to 200 μM and for control DMSO to 1% was used. […] For XTT assay first the medium in the wells was replaced with 200 μs of fresh phenol-red free medium. Then 50 μls of XTT solution with PMS was added to the wells. The XTT solution was made adding 0.02% phenazine methosulfate (Sigma-Aldrich #P9625) to 1 mg/ml XTT sodium salt made up in phenol-red free RPMI (Sigma-Aldrich #X4636).

HepG2 cells [1] = experiment: XTT cell death assay, HepG2 hepatocarcinoma cells; format: cell-based, human; conditions: dilutions 0.01 nM to 200 μM, usually 24 or 48 hours; for minimal effective concentration: Homo sapiens, HepG2, *Greater than 50% inhibition, read-out: HepG2* (liver cancer): concentration with greater than 50% inhibition
Protocol: as §1, §2

MCF7/LCC9 cell line = experiment: XTT cell death assay, MCF7/LCC9 cells; format: cell-based; conditions: Homo sapiens, # = 200 uM not tested, read-out: LCC-9: concentration with effect on cancer cells
Protocol: (§3) Maintenance and Treatment of Cell Lines. Human HepG2 hepatocarcinoma cells and human U87MG glioma cells (ATCC, Manassas, Va.) were maintained in EMEM medium supplemented with 10% FBS (Hyclone, Logan, Utah). The human 1321N1 astrocytoma cells (European Collection of Cell Cultures, Sigma-Aldrich) were cultured in Dulbecco's modified Eagle's medium supplemented with 10% FBS and 2 mM L-glutamine. Human prostate carcinoma cell line PC3 was cultured in F-12K medium (Life Technologies) supplemented 10% FBS. Human lung carcinoma cell line A549 was cultured in DMEM+2 mM glutamine+10% FBS. ER positive, estrogen independent for growth MCF7/LCC9 cell line was cultured in IMEM (Biofluids) supplemented with 5% charcoal stripped calf serum. Medulloblastoma cell line DAOY was cultured in Eagle's MEM supplemented with 10% FBS. All cell lines except […] were cultured at 37° C. in 5% CO2, and the medium was replaced every 2-3 days. MDA-MB-231 was grown in Leibovitz's L-15 medium with 10% FBS without CO2 supplementation.
as §2, with “#X4636). The plate was incubated for 4 hours at 37° C. and then the absorbance was read at a wavelength of 490 nm.” for “#X4636).”

A549 = experiment: XTT cell death assay, A549 lung carcinoma cells; format: cell-based; conditions: Homo sapiens, # = 200 uM not tested, read-out: A549: concentration with effect on cancer cells
Protocol: as §3
as §2, with “#X4636). The plate was incubated for 4 hours at 37° C. and then the absorbance was read at a wavelength of 490 nm.” for “#X4636).”

DAOY = experiment: XTT cell death assay, DAOY medulloblastoma cells; format: cell-based; conditions: Homo sapiens, # = 200 uM not tested, read-out: DAOY: concentration with effect on cancer cells
Protocol: as §3
as §2, with “#X4636). The plate was incubated for 4 hours at 37° C. and then the absorbance was read at a wavelength of 490 nm.” for “#X4636).”

PC3 cells = experiment: XTT cell death assay, PC3 prostate carcinoma cells; format: cell-based; conditions: Homo sapiens, PC-3, # = 200 uM not tested, read-out: PC3: concentration with effect on cancer cells
Protocol: as §3
as §2, with “#X4636). The plate was incubated for 4 hours at 37° C. and then the absorbance was read at a wavelength of 490 nm.” for “#X4636).”

A549 xenograft = experiment: Zebrafish xenograft assay with implanted A549 cells; format: in vivo; conditions: zebrafish embryos, 100 uM, 4 days after implantation, n=10 to 15
Protocol: Zebrafish xenograft assay. Zebrafish embryos with implanted A549 cells were imaged within 6 hours of cell injection (day 0) and treated with compounds. At 4 days post injection (day 4) the embryos were imaged again. The area of fluorescence due to the labeled cells was measured using Image J at day 0 (area 0) and day 4 (area 4). The change in area was calculated by subtracting area 0 from area 4 (=d area). D area was then normalized for the size of the initial tumor by dividing d area by area 0 (=d area/area 0).

MDA-MB-231 = experiment: XTT cell death assay, MDA-MB-231 cells; format: cell-based; conditions: Homo sapiens, # = 200 uM not tested, read-out: MDA-MB-231: concentration with effect on cancer cells
Protocol: as §3
as §2, with “#X4636). The plate was incubated for 4 hours at 37° C. and then the absorbance was read at a wavelength of 490 nm.” for “#X4636).”

HepG2 cells [2] = experiment: Caspase assay (Caspase-Glo 3/7) on HepG2 cells; format: cell-based, human; conditions: n=4; for caspase activity (fluorescence ratio to untreated cells): 48 hours after addition, 100 uM
Protocol: Caspase Assay. Caspase assay was conducted by using the Promega Caspase-Glo 3/7 kit. 100 ul of caspase-Glo 3/7 reagent was added to each well of a white walled 96-well plate containing 100 ul of blank, negative control cells or treated cells in culture medium. The contents of the wells were mixed gently and incubated at room temperature for 30 minutes to 3 hours. The luminescence of each sample was read in a luminometer.

| SMILES | minimal effective concentration (1321N1 cells) [µM] | minimal effective concentration (HepG2 cells [1]) [µM] | minimal effective concentration (MCF7/LCC9 cell line) [µM] | minimal effective concentration (A549) [µM] | minimal effective concentration (DAOY) [µM] | minimal effective concentration (PC3 cells) [µM] | area of A549 xenograft implant (A549 xenograft) | minimal effective concentration (MDA-MB-231) [µM] | caspase activity (fluorescence ratio to untreated cells) (HepG2 cells [2]) | caspase activation (fluorescence ratio to untreated cells) (HepG2 cells [2]; 48 hours, control compound at 10 uM) | HepG2* (liver cancer): concentration with greater than 50% inhibition (HepG2 cells [1]) |
| --- | --- | --- | --- | --- | --- | --- | --- | --- | --- | --- | --- |
| CC(N)c1ccc2ccccc2c1 (stereo not drawn) [NT010] | 200 | 200 | – | – | – | – | – | – | – | – | – |
| CC(Cc1cccc2ccccc12)NCC(O)c1ccccc1O (stereo not drawn) [NT029, 2-(1-hydroxy-2-((1-(naphthalen-1-yl)propan-2-yl)amino)ethyl)phenol] | – | 100 | 100 | 100 | 100 | 200 | efficacy of reducing the area of xenograft significantly | – | – | – | – |
| Cc1ccc(CC(C)NCC(O)c2cccc(O)c2)c2ccccc12 (stereo not drawn) [NT037, 3-(1-hydroxy-2-((1-(4-methylnaphthalen-1-yl)propan-2-yl)amino)ethyl)phenol] | – | – | 100 | 100 | 100 | – | – | 100 | – | – | – |
| Cc1ccc(CC(C)NCC(O)c2ccc(O)cc2)c2ccccc12 (stereo not drawn) [NT039, 4-(1-hydroxy-2-((1-(4-methylnaphthalen-1-yl)propan-2-yl)amino)ethyl)phenol] | – | – | 100 | 100 | 100 | – | efficacy of reducing the area of xenograft significantly | – | – | – | – |
| CC(Cc1ccc2ccccc2c1)NCCc1ccc(O)cc1 (stereo not drawn) [NT021, 4-(2-((1-(naphthalen-2-yl)propan-2-yl)amino)ethyl)phenol] | – | 200 | 100 | 100 | 100 | 200 | – | 100 | – | – | – |
| CC(Cc1ccc2ccccc2c1)NCC(O)c1ccccc1 (stereo not drawn) [NT020, 2-((1-(naphthalen-2-yl)propan-2-yl)amino)-1-phenylethan-1-ol] | – | 100 | 100 | 100 | 100 | 100 | – | 100 | – | – | – |
| CC(Cc1ccc2ccccc2c1)Nc1ccc(O)cc1 (stereo not drawn) [NT018, 4-((1-(naphthalen-2-yl)propan-2-yl)amino)phenol] | 100 | 200 | – | 100 | 100 | 100 | – | – | – | – | – |
| O=C(O)c1cc(O)c(O)c(O)c1 [NT003] | 200 | 200 | – | – | – | – | – | – | – | – | – |
| CC(Cc1ccc2ccccc2c1)NCC(O)c1ccc(O)cc1 (stereo not drawn) [NT026, 4-(1-hydroxy-2-((1-(naphthalen-2-yl)propan-2-yl)amino)ethyl)phenol] | – | 100 | 100 | 100 | 100 | 100 | efficacy of reducing the area of xenograft significantly | 100 | – | – | – |
| CC(N)c1cccc2ccccc12 (stereo not drawn) [NT009] | 100 | 100 | – | – | – | – | – | – | – | – | – |
| Cc1ccc(CC(C)NCCc2ccc(O)cc2)c2ccccc12 (stereo not drawn) [NT034] | – | 200 | 100 | – | – | – | – | 100 | – | – | – |
| CC(Cc1cccc2ccccc12)NCC(O)c1ccc(O)cc1 (stereo not drawn) [NT027, 4-(1-hydroxy-2-((1-(naphthalen-1-yl)propan-2-yl)amino)ethyl)phenol] | – | – | 100 | – | – | – | efficacy of reducing the area of xenograft significantly | 100 | increase in caspase activity | – | – |
| CC(Cc1ccc2ccccc2c1)NCC(O)c1ccccc1O (stereo not drawn) [NT030, 2-(1-hydroxy-2-((1-(naphthalen-2-yl)propan-2-yl)amino)ethyl)phenol] | – | 100 | 100 | 100 | 100 | 100 | – | 100 | – | – | – |
| CC(Cc1cccc2ccccc12)NCC(O)c1cccc(O)c1 (stereo not drawn) [NT022, 3-(1-hydroxy-2-((1-(naphthalen-1-yl)propan-2-yl)amino)ethyl)phenol] | – | 100 | 100 | 100 | 100 | 100 | – | 100 | increase in caspase activity | – | – |
| CC(Cc1ccc2ccccc2c1)NCC(O)c1cccc(O)c1 (stereo not drawn) [NT023, 3-(1-hydroxy-2-((1-(naphthalen-2-yl)propan-2-yl)amino)ethyl)phenol] | – | 100 | 100 | 100 | 100 | 100 | – | 100 | – | – | – |
| C[C@H](CCC(=O)O)C[C@H](C)C[C@H](C)C(=O)/C=C(\O)[C@H](C)C[C@H](C)C/C=C/[C@@H](C)[C@@H](O)[C@@H](C)[C@@H](O)C[C@@H]1CC[C@@](C)([C@H]2CC[C@@](C)([C@@H](C)O)O2)O1 [ionomycin, reference compound] | – | – | – | – | – | – | – | – | – | did not show an increase in caspase activation | – |
| Cc1ccc(CC(C)NCC(O)c2ccccc2)c2ccccc12 (stereo not drawn) [NT038, 2-((1-(4-methylnaphthalen-1-yl)propan-2-yl)amino)-1-phenylethan-1-ol] | – | – | 100 | 100 | 100 | – | – | 100 | – | – | – |
| CC(Cc1cccc2ccccc12)NCC(O)c1ccc(O)cc1 (stereo not drawn) [NT019] | – | 100 | – | 100 | 100 | 100 | – | – | increase in caspase activity | – | – |
| COc1ccc2cc(C(C)N)ccc2c1 (stereo not drawn) [NT011] | 200 | 200 | – | – | – | – | – | – | – | – | – |
| CC(Cc1cccc2ccccc12)Nc1ccc(O)cc1 (stereo not drawn) [NT017, 4-((1-(naphthalen-1-yl)propan-2-yl)amino)phenol] | 100 | – | – | 100 | 100 | 100 | – | – | – | – | No effect |

From US20190337889A1, “COMPOSITIONS AND METHODS OF REGULATING CANCER RELATED DISORDERS AND DISEASES” (ONCO THERAPIES LLC, priority 2016, published 2019)
